How the values were obtained:
Assay in all cases: SPR
[1] = tested on: AAAGTTT (DNA, hairpin) CCAAAGTTTGCTCTCAAACTTTGG; conditions: Na+ 100 mM, 50 mM Tris-HCl, 1 mM EDTA, pH 7.4, 25 °C
[2] = tested on: AAATTT (DNA, hairpin) CCAAATTTGCTCTCAAATTTGG; conditions: Na+ 100 mM, 50 mM Tris-HCl, 1 mM EDTA, pH 7.4, 25 °C
[3] = tested on: AATAAT (DNA, hairpin) CCAATAATGCTCTCATTATTGG; conditions: Na+ 100 mM, 50 mM Tris-HCl, 1 mM EDTA, pH 7.4, 25 °C
[4] = tested on: ATATAT (DNA, hairpin) CCATATATGCTCTCATATATGG; conditions: Na+ 100 mM, 50 mM Tris-HCl, 1 mM EDTA, pH 7.4, 25 °C
[5] = tested on: AAAAAA (DNA, hairpin) CCAAAAAAGCTCTCTTTTTTGG; conditions: Na+ 100 mM, 50 mM Tris-HCl, 1 mM EDTA, pH 7.4, 25 °C
[6] = tested on: AAAGAAA (DNA, hairpin) CCAAAGAAAGCTCTCTTTCTTTGG; conditions: Na+ 100 mM, 50 mM Tris-HCl, 1 mM EDTA, pH 7.4, 25 °C
[7] = tested on: AAAGCTTT (DNA, hairpin) CCAAAGCTTTGCTCTCAAAGCTTTGG; conditions: Na+ 100 mM; 50 mM Tris-HCl, 1 mM EDTA, pH 7.4, 25 °C
[8] = tested on: AATGAAT (DNA, hairpin) CCAATGAATGCTCTCATTCATTGG; conditions: Na+ 100 mM; 50 mM Tris-HCl, 1 mM EDTA, pH 7.4, 25 °C
[9] = tested on: AATGCAAT (DNA, hairpin) CCAATGCAATGCTCTCATTGCATTGG; conditions: Na+ 100 mM; 50 mM Tris-HCl, 1 mM EDTA, pH 7.4, 25 °C
[10] = tested on: ATAGTAT (DNA, hairpin) CCATAGTATGCTCTCATACTATGG; conditions: Na+ 100 mM; 50 mM Tris-HCl, 1 mM EDTA, pH 7.4, 25 °C
[11] = tested on: ATAGCTAT (DNA, hairpin) CCATAGCTATGCTCTCATAGCTATGG; conditions: Na+ 100 mM; 50 mM Tris-HCl, 1 mM EDTA, pH 7.4, 25 °C
[12] = tested on: AAAGCAAA (DNA, hairpin) CCAAAGCAAAGCTCTCTTTGCTTTGG; conditions: Na+ 100 mM, 50 mM Tris-HCl, 1 mM EDTA, pH 7.4, 25 °C

KD [1] [µM]	KD [2] [µM]	KD ([3]; Figure S2 prints 344 nM) [µM]	KD [4] [µM]	KD [5] [µM]	binding ([6]; NB [sic])	KD ([1]; text b19 gives 1.8 nM) [µM]	KD [7] [µM]	binding ([3]; NB [sic])	KD [8] [µM]	KD [9] [µM]	binding ([4]; NB [sic])	KD [10] [µM]	KD [11] [µM]	binding ([5]; NB [sic])	KD [6] [µM]	binding ([12]; NB [sic])	KD [3] [µM]	KD [12] [µM]	binding ([2]; NB [sic])	SMILES
0.9	0.084	0.117	0.344	0.261	no	–	–	–	–	–	–	–	–	–	–	–	–	–	–	N=C(N)c1ccc(OCc2cccc(COc3ccc(C(=N)N)cc3)c2)cc1
–	0.374	–	–	–	–	0.0014	0.058	no	0.024	1.176	no	0.068	0.719	no	0.019	no	–	–	–	N=C(N)c1ccc(OCc2cccc(COc3ccc(C(=N)N)cc3)n2)cc1
0.052	–	–	–	–	–	–	1.025	–	0.689	–	–	–	–	–	–	–	–	–	–	N=C(N)c1ccc(OCc2cccc(COc3ccc(C(N)=O)cc3)n2)cc1
0.001	0.138	–	0.709	1.111	–	–	0.027	–	0.0057	0.534	–	0.0336	0.256	–	0.0046	–	0.141	0.653	–	c1cc(COc2ccc(C3=NCCCN3)cc2)nc(COc2ccc(C3=NCCCN3)cc2)c1
0.0036	–	–	–	–	–	–	0.123	–	0.101	–	–	0.227	1	–	0.043	–	–	–	no	c1cc(COc2ccc(C3=NCCN3)cc2)nc(COc2ccc(C3=NCCN3)cc2)c1

— PMC9147024 (2022)
